Experiment [1] relates to P. aeruginosa growth with EDDHA, OD600, 24-30 h. As to the kind of experiment: P. aeruginosa growth delay under iron chelation, dose response, absorbance, plate reader, cherry-picks (AID 602389).
Assay in experiment [2]: as above
The following applies: P. aeruginosa growth with EDDHA, OD600, 24-30 h; at 50 µM (top of the series).

The source made the active and inactive calls.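 Rule for the calls: active = growth down by 35% or more in duplicate, reached at no more than twice the top tested dose; inactive = growth raised instead, and the rest.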 Some results are limits rather than exact numbers.

`Cc1cccc(C(C#N)c2ccc(Cl)nn2)c1` (stereo not drawn): in experiment [1], the AC35 is > 50 µM (inactive).

In the case of `Cc1cc(NC(=O)Nc2ccccc2[N+](=O)[O-])no1`, the AC35 in experiment [1] was > 50 µM (inactive). The same measure, in the same setting: the result for `Cc1cc(C)nc(N(C#N)Cc2ccccc2)n1` reads > 50 µM (inactive). `c1ccn2cc(-c3ccc4c(c3)OCCO4)nc2c1`: the AC35 in experiment [1] is > 50 µM (inactive). Regarding `COC(=O)c1cc(-c2ccc(Br)cc2)on1`, the AC35 in experiment [1] is 47 µM. `O=C(NC1CCS(=O)(=O)C1)c1cccc(Br)c1` (stereo not drawn): the AC35 in experiment [1] is > 50 µM (inactive). Turning to `N#CC(c1ccc(Cl)cc1)c1cccc(Cl)n1` (stereo not drawn), the AC35 in experiment [1] was 41.2 µM. As for `N#CCn1c(C2CCCCC2)nc2ccccc2c1=O`, in experiment [2], the growth change, negative = inhibition is 17.3% (inactive). For the compound `Nc1ccc(OCc2ccccc2)cc1[N+](=O)[O-]`, the growth change, negative = inhibition in experiment [2] was 3.9% (inactive). For `O=[N+]([O-])c1ccc(N2CCCC2)nc1`, the growth change, negative = inhibition in experiment [2] is 9.43% (inactive). Turning to `CC(C)(C)NC(=O)c1cc(Cl)ccc1[N+](=O)[O-]`, the growth change, negative = inhibition in experiment [2] was 12.1% (inactive).

On to `O=C(NCC1CC1)c1cc([N+](=O)[O-])cc([N+](=O)[O-])c1`, for which the growth change, negative = inhibition in experiment [2] is 7.47% (inactive). `Clc1ccc2scc(CN3CCCCC3)c2c1`: the growth change, negative = inhibition in experiment [2] was -3.92% (inactive). With `COc1ccc(/C(C#N)=C/c2cccnc2)cc1`, the growth change, negative = inhibition in experiment [2] is -1.53% (inactive). In the case of `OC(c1cccc(Cl)c1)c1nccc2ccccc12` (stereo not drawn), the growth change, negative = inhibition in experiment [2] was -6.69% (inactive).

For the compound `N#Cc1cc([N+](=O)[O-])ccc1N1CCCC1`, in experiment [2], the growth change, negative = inhibition was -11.4% (inactive). `O=CN(c1ccccc1)c1ccc2ccccc2c1`: the growth change, negative = inhibition in experiment [2] was -5.6% (inactive). In the case of `O=[N+]([O-])c1ccc(-c2cccnc2)cc1`, in experiment [2], the growth change, negative = inhibition was -3.69% (inactive). On to `O=C(NC1CCCC1)c1cc(Cl)ccc1[N+](=O)[O-]`, for which the growth change, negative = inhibition in experiment [2] was 7.04% (inactive). In the case of `Cn1cccc1C(C#N)c1ccccc1C#N` (stereo not drawn), in experiment [2], the growth change, negative = inhibition is 9.31% (inactive). Regarding `CC(C)CCNC(=O)c1cccc(Cl)c1`, the growth change, negative = inhibition in experiment [2] is -12.3% (inactive). Still for that read-out and setting: the result for `Cc1ccc2scc(CN3CCCC3)c2c1` reads -6.73% (inactive); that for `O=[N+]([O-])c1ccc(N2CCCCC2)cc1`, 8.85% (inactive). For the compound `Cn1cccc1C(=O)OCc1cc(-c2ccco2)on1`, the growth change, negative = inhibition in experiment [2] was 6.86% (inactive). As for `COC(=O)c1cc(-c2ccc(OC)cc2)on1`, in experiment [2], the growth change, negative = inhibition is -7.05% (inactive). For `Cc1ccc(S(=O)(=O)NCCC(C)C)cc1[N+](=O)[O-]`, the growth change, negative = inhibition in experiment [2] was 1.56% (inactive). For the compound `O=C(NC1CCSC1)c1cccc(Cl)c1` (stereo not drawn), the growth change, negative = inhibition in experiment [2] is 2.12% (inactive). Same read-out and setting: with `CCOC(=O)CCCn1ncn2c(cc3occc32)c1=O` the figure was -2.87% (inactive); with `COc1ccc(N=C(C)C2=C(O)CSC2=O)cc1`, 15.6% (inactive); with `CN(Cc1ccccc1)c1ncnc2ccc(Br)cc12`, 9.04% (inactive). For `COc1ccc(N2CCN(C(=O)c3ccc(Br)o3)CC2)cc1`, the growth change, negative = inhibition in experiment [2] was -4.3% (inactive). For `N#CC(Sc1ccccn1)c1ccc(Cl)cc1` (stereo not drawn), the growth change, negative = inhibition in experiment [2] was 15.4% (inactive). With `CCOC(=O)c1ccc(-c2ccc(CO)o2)cc1`, in experiment [2], the growth change, negative = inhibition was -6.54% (inactive).

The values above are taken from PubChem BioAssay AID602389 (Broad Institute, 2012).
